Test results published in article PMC6129362, “MT1-MMP as a PET Imaging Biomarker for Pancreas Cancer Management” (Contrast Media & Molecular Imaging, 2018).
Where a SMILES comes first, the peptide text is derived from it. The star is where a group is joined. DOTA = O=C(O)CN1CCN(CC(=O)O)CCN(CC(=O)*)CCN(CC(=O)O)CC1

Columns and labels:
[1] = test system: subcutaneous PDAC patient-derived xenograft; test: PET/CT imaging in heterotopic (subcutaneous) patient-derived xenograft mice; format: in vivo, mouse; settings: heterotopic PDX mice
Excerpt: (§1) PDX models used in this work were established as described by Rubio-Viqueira et al. and Hidalgo et al. using four- to six-week-old female athymic nude-Foxn1nu (nu/nu) mice, purchased from Envigo (Barcelona, Spain). Animals were maintained at the Spanish National Cancer Research Centre (CNIO) Animal Facility (awarded with the AAALAC accreditation). Orthotopic tumours were monitored by ultrasonography, and those implanted into the flanks were allowed to grow to approximately 40 to 200 mm^3 prior to perform PET imaging studies.
(§2) PET imaging was performed with a small-animal Argus PET-CT scanner (SEDECAL, Madrid, Spain). PET studies (energy window 250–700 KeV and 30 min static acquisition) and CT studies (voltage 45 kV, current 150 μA, 8 shots, 360 projections, and standard resolution) were performed either at 90 min or at various time points after injection of ^68Ga-DOTA-AF7p or ^89Zr-DFO-LEM2/15, respectively, in mice anesthetized by inhalation of 2–2.5% isoflurane. PET image reconstruction was accomplished using a 2D-OSEM (ordered subset expectation maximization) algorithm (16 subsets and two iterations), with random and scatter correction. A calibration factor predetermined by scanning a cylindrical phantom containing a known activity of ^68Ga or ^89Zr was used to convert counts per pixel/sec to kBq/cm^3. Manually drawn regions of interest (ROIs) selected from PET images using CT anatomical guidelines were used to determine the mean radiotracer accumulation in units of %ID/g tissue (decay corrected to the time of injection) by dividing the obtained average tracer concentration (kBq/cm^3) in the region by the total ID (injected dose, expressed in kBq). Tumour-to-blood and tumour-to-background ratios were calculated from %ID/g values in ROIs for the whole tumour, heart (a measure of the blood pool), and brain (for background measurements). Images were analysed with the image analysis software ITK-SNAP [26] (http://www.itksnap.org).

[2] = as above; format: in vivo, mouse; settings: female, athymic nude-Foxn1nu (nu/nu), mouse, total radioactivity, heterotopic PDX mice
Excerpt: as §1, §2

[3] = PET/CT imaging in CAPAN-2-tumour-bearing mice; format: in vivo; settings: female, athymic nude-Foxn1nu (nu/nu), mouse, iv, total radioactivity, CAPAN-2 xenograft mice, i.v., PET 90 min after injection, mean ± SD (n=33 for -1, n=17 for -2), read-out: Tumour uptake quantified by PET imaging
Protocol: For the cell line-derived model, 1 × 10^6 CAPAN-2 cells were injected subcutaneously into the flanks of female athymic nude-Foxn1nu (nu/nu) mice (Harlan Laboratories). Tumours were allowed to develop until palpable prior to PET imaging. Mice were sacrificed when the tumour mass reached a maximum size of 1500 mm^3 or tumour ulceration was observed, or mice were symptomatic from their tumours which included signs of lethargy, poor grooming, weight loss, and hunching.
PET imaging was performed with a small-animal Argus PET-CT scanner (SEDECAL, Madrid, Spain). PET studies (energy window 250–700 KeV and 30 min static acquisition) and CT studies (voltage 45 kV, current 150 μA, 8 shots, 360 projections, and standard resolution) were performed either at 90 min or at various time points after injection of ^68Ga-DOTA-AF7p or ^89Zr-DFO-LEM2/15, respectively, in mice anesthetized by inhalation of 2–2.5% isoflurane. PET image reconstruction was accomplished using a 2D-OSEM (ordered subset expectation maximization) algorithm (16 subsets and two iterations), with random and scatter correction. […] Tumour-to-blood and tumour-to-background ratios were calculated from %ID/g values in ROIs for the whole tumour, heart (a measure of the blood pool), and brain (for background measurements). Images were analysed with the image analysis software ITK-SNAP [26] […]

Compound: CC(C)C[C@H](NC(=O)[C@H](Cc1ccccc1)NC(=O)[C@@H](NC(=O)[C@H](CCCCN)NC(=O)[C@@H](NC(=O)[C@H](CC(N)=O)NC(=O)[C@H](Cc1c[nH]cn1)NC(=O)[C@H](CC(C)C)NC(=O)[C@H](Cc1c[nH]cn1)NC(=O)[C@H](CCCCN)NC(=O)[C@H](Cc1c[nH]c2ccccc12)NC(=O)[C@H](Cc1c[nH]cn1)NC(=O)CN1CCN(CC(=O)O)CCN(CC(=O)O)CCN(CC(=O)O)CC1)[C@@H](C)O)[C@@H](C)O)C(=O)O [^68Ga-DOTA-AF7p-1, metal not drawn] ({DOTA}-HWKHLHNTKTFL-OH)
- Route of excretion (signals in kidneys and bladder on PET) [1]: mainly excreted through the renal route
- tissue uptake at 1.5 h ([2]; kidneys, PET, n=17, read-out: Mean accumulation in kidneys): 4.03 ± 1.73 %ID/g
- tissue uptake at 1.5 h ([2]; liver, PET, n=16, read-out: Mean accumulation in liver): 0.8 ± 0.6 %ID/g
- tissue uptake at 1.5 h ([2]; tumour, PET 90 min after injection, start of the PET study, n=8, read-out: Tumour uptake quantified by PET imaging): 0.23 ± 0.085 %ID/g
- tissue uptake at 1.5 h ([2]; tumour, PET 90 min after injection, study day 5, n=8, read-out: Tumour uptake quantified by PET imaging): 0.227 ± 0.142 %ID/g
- tissue uptake at 1.5 h ([2]; tumour, PET 90 min after injection, study day 8, n=6, read-out: Tumour uptake quantified by PET imaging): 0.26 ± 0.047 %ID/g
- tissue uptake at 1.5 h ([2]; tumour, PET 90 min after injection, study day 14, n=10, read-out: Tumour uptake quantified by PET imaging): 0.185 ± 0.082 %ID/g
- tissue uptake at 1.5 h [3]: 0.171 ± 0.095 %ID/g

Compound: CC(C)C[C@H](NC(=O)[C@H](Cc1ccccc1)NC(=O)[C@@H](NC(=O)[C@H](CCCCN)NC(=O)[C@@H](NC(=O)[C@H](CC(N)=O)NC(=O)[C@H](Cc1c[nH]cn1)NC(=O)[C@H](CC(C)C)NC(=O)[C@H](Cc1c[nH]cn1)NC(=O)[C@H](CCCCNC(=O)CN1CCN(CC(=O)O)CCN(CC(=O)O)CCN(CC(=O)O)CC1)NC(=O)[C@H](Cc1c[nH]c2ccccc12)NC(=O)[C@@H](N)Cc1c[nH]cn1)[C@@H](C)O)[C@@H](C)O)C(=O)O [^68Ga-DOTA-AF7p-2, metal not drawn] (H-HWK(DOTA)HLHNTKTFL-OH)
- tissue uptake at 1.5 h [3]: 0.216 ± 0.095 %ID/g
